From US20230167414A1, “METHODS FOR ISOLATING AND CULTURING TUMOR CELLS” (Georgetown University, priority 2020, published 2023)

Assays:
airway epithelial cells = details: cited from earlier work
the cells = assay: Culture conditions described herein with upstream/downstream ROCK pathway inhibitor in place of a ROCK inhibitor; assay type: cell-based; details: used in the culture conditions in place of a ROCK inhibitor
Source text: As used herein, inhibiting ROCK can mean to reduce the activity, function, or expression of at least one of ROCK1 or ROCK2. […] In general, ROCK phosphorylates LEVI kinase and myosin light chain (MLC) phosphatase after being activated through binding of GTP-bound Rho. One embodiment of the present invention thus involves blocking the upstream pathway of ROCK1 and/or ROCK2, for example GTP-bound Rho, such that ROCK1 and/or ROCK2 is not activated or its activity is reduced over untreated cells. Other upstream effectors include, but are not limited to, integrins, growth factor receptors, including but not limited to, TGF-beta and EGFR, cadherins, G protein coupled receptors and the like. Another embodiment of the present invention thus involves blocking the activity, function, or expression of downstream effector molecules of activated ROCK1 and/or ROCK2 such that ROCK1 and/or ROCK2 cannot propagate any signal or can only propagate a reduced signal over untreated cells. Downstream effectors include, but are not limited to, myosin phosphatase-targeting protein (MYPT), vimentin, LIMK, myosin light chain kinase, NHE1, cofilin, Myosin II and the like.

Compound: O=S(=O)(c1cccc2cnccc12)N1CCCNCC1 [HA 1077, fasudil]
- effect of inhibition on airway epithelial cells (airway epithelial cells): induces membrane ruffling, loss of actin stress fibers and apoptosis

Compound: C[C@@H](N)[C@H]1CC[C@H](C(=O)Nc2ccncc2)CC1 [Y-27632]
- effect of inhibition on airway epithelial cells (airway epithelial cells): induces membrane ruffling, loss of actin stress fibers and apoptosis

Compound: Cc1ccc2c(c1)C(=O)C1(O)CCN(c3ccccc3)C1=N2 (stereo not shown) [blebbistatin]
- effect on cells (differentiation / proliferation in vitro) (the cells): allow the cells to bypass differentiation and allow proliferation in vitro

Compound: C3 transferase
- effect on cells (differentiation / proliferation in vitro) (the cells): allow the cells to bypass differentiation and allow proliferation in vitro
